Legend:
[1] = biological target: E3 ubiquitin-protein ligase CBL-B (Homo sapiens, UniProt Q13191); assay: Inhibition of Cbl-b (unknown origin) by TR-FRET assay
[2] = Intrinsic clearance in human liver microsome at 1 uM incubated for 30 mins in presence of NADPH by LC-MS/MS analysis; format: ADME, microsomes; conditions: for microsomal CLint at 1 µM: liver microsomes, read-out: CLH
[3] = Lipophilicity, logD of compound in octanol/aqueous buffer at pH 7.4 incubated for 2 hrs by shake flask method; format: physicochemical; conditions: for logD at 2 h: octanol/aqueous buffer, pH 7.4

E3 ubiquitin-protein ligase CBL-B, sequence (Q13191 whole entry): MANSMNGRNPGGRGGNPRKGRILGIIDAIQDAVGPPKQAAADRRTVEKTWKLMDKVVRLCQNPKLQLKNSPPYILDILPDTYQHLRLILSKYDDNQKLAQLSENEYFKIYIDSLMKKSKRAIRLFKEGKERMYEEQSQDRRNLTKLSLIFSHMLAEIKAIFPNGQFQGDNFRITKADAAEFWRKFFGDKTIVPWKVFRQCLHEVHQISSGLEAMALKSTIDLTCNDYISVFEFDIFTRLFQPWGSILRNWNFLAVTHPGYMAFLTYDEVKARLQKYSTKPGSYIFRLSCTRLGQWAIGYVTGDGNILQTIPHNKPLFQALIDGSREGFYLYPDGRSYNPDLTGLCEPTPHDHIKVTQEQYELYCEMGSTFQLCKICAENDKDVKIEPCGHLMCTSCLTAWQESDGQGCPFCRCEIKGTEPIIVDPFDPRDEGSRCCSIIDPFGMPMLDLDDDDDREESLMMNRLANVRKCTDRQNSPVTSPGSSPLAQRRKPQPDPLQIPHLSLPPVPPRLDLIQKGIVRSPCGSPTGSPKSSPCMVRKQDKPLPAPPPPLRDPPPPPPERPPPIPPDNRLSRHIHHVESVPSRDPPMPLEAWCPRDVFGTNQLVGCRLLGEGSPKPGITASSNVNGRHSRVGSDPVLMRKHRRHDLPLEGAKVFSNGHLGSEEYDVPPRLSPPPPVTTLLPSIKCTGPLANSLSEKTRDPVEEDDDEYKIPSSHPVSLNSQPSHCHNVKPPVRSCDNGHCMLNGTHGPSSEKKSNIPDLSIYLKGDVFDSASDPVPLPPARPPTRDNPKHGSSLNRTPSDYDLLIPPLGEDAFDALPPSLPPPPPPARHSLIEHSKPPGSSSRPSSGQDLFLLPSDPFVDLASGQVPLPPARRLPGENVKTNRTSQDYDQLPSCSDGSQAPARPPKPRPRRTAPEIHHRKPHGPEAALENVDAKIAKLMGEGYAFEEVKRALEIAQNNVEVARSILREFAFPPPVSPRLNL

Work on `C[C@H]1CCCN(Cc2cc(C(F)(F)F)c3nn(-c4cccc([C@]5(C)CCNC(=O)C5)c4)c(=O)n3c2)C1` yielded an IC50 [1] of 1.2 µM, a microsomal CLint at 1 µM [2] of 170 µL/min/mg and a logD at 2 h [3] of 3.5.
`Cn1cnnc1[C@]1(c2cccc(-n3nc4c(C(F)(F)F)cccn4c3=O)c2)C[C@H](C)C1` showed an IC50 [1] of 0.23 µM, a microsomal CLint at 1 µM [2] of 48 µL/min/mg and a logD at 2 h [3] of 2.7.
Compound `C[C@H]1CCCN(Cc2cc(C(F)(F)F)c3nn(-c4cccc(C5(C)CC(=O)NC(=O)C5)c4)c(=O)n3c2)C1` has an IC50 [1] of 6.6 µM, a microsomal CLint at 1 µM [2] of over 300 µL/min/mg and a logD at 2 h [3] of 3.2.
In the case of `Cc1cc(C(=O)Nc2cccc([C@@]3(C)CCNC(=O)C3)c2)nc(C2CC2)n1`, the IC50 [1] is reported as 33 µM, the microsomal CLint at 1 µM [2] is reported as 23 µL/min/mg and the logD at 2 h [3] is reported as 2.7.
`CC[C@@]1(c2cccc(NC(=O)c3cc(C)nc(C4CC4)n3)c2)CCNC(=O)O1` gave an IC50 [1] of 1.4 µM, a microsomal CLint at 1 µM [2] of 27 µL/min/mg and a logD at 2 h [3] of 3.
In the case of `C[C@H]1CCCN(Cc2cc(C(F)(F)F)c3nn(-c4cccc([C@]5(C6CC6)CCNC(=O)O5)c4)c(=O)n3c2)C1`, the IC50 [1] is reported as 0.007 µM, the microsomal CLint at 1 µM [2] is reported as 260 µL/min/mg and the logD at 2 h [3] is reported as 3.7.
For `Cc1cc(C(=O)Nc2cccc(C3(C)CCNC(=O)N3)c2)nc(C2CC2)n1` (racemic), the IC50 [1] was over 100 µM, the microsomal CLint at 1 µM [2] was 6.6 µL/min/mg and the logD at 2 h [3] was 2.4.
`C[C@H]1CCCN(Cc2cc(C(F)(F)F)c3nn(-c4cccc([C@@]5(C)CCNC(=O)C5)c4)c(=O)n3c2)C1` showed an IC50 [1] of 37 µM, a microsomal CLint at 1 µM [2] of 230 µL/min/mg and a logD at 2 h [3] of 3.4.
Work on `Cc1cc(C(=O)Nc2cccc([C@@]3(C4CC4)CCNC(=O)O3)c2)nc(C2CC2)n1` yielded an IC50 [1] of over 100 µM, a microsomal CLint at 1 µM [2] of 61 µL/min/mg and a logD at 2 h [3] of 3.
`Cc1cc(C(=O)Nc2cccc([C@]3(C)CCNC(=O)O3)c2)nc(C2CC2)n1` showed an IC50 [1] of 4.8 µM, a microsomal CLint at 1 µM [2] of 5.9 µL/min/mg and a logD at 2 h [3] of 2.5.
Compound `Cc1cc(C(=O)Nc2cccc([C@@]3(C)CCNC(=O)O3)c2)nc(C2CC2)n1` has an IC50 [1] of over 100 µM, a microsomal CLint at 1 µM [2] of 7.7 µL/min/mg and a logD at 2 h [3] of 2.4.
`CNC(=O)[C@]1(c2cccc(-n3nc4c(C(F)(F)F)cc(CN5CCC[C@H](C)C5)cn4c3=O)c2)C[C@H](C)C1` gave an IC50 [1] of 6.5 µM, a microsomal CLint at 1 µM [2] of over 300 µL/min/mg and a logD at 2 h [3] of 4.3.
In the case of `Cc1cc(C(=O)Nc2cccc([C@]3(c4nncn4C)C[C@@H](C)C3)c2)nc(C2CC2)n1`, the IC50 [1] is reported as 0.16 µM, the microsomal CLint at 1 µM [2] is reported as 35 µL/min/mg and the logD at 2 h [3] is reported as 3.2.
With `O=C1NCC[C@@](c2cccc(-c3cc(C(F)(F)F)c[nH]c3=O)c2)(C2CC2)O1` the IC50 [1] was 8.2 µM, the microsomal CLint at 1 µM [2] was 35 µL/min/mg and the logD at 2 h [3] was 2.1.
In the case of `C[C@H]1CCCN(Cc2cc(C(F)(F)F)c3nn(-c4cccc([C@@]5(C6CC6)CCNC(=O)O5)c4)c(=O)n3c2)C1`, the IC50 [1] is reported as 7.8 µM, the microsomal CLint at 1 µM [2] is reported as over 300 µL/min/mg and the logD at 2 h [3] is reported as 3.8.
`O=C1NCC[C@](c2cccc(-c3cc(C(F)(F)F)c[nH]c3=O)c2)(C2CC2)O1` gave an IC50 [1] of 0.091 µM, a microsomal CLint at 1 µM [2] of 18 µL/min/mg and a logD at 2 h [3] of 2.2.
With `CC[C@]1(c2cccc(NC(=O)c3cc(C)nc(C4CC4)n3)c2)CCNC(=O)O1` the IC50 [1] was over 100 µM, the microsomal CLint at 1 µM [2] was 54 µL/min/mg and the logD at 2 h [3] was 2.9.
`CC1CC(c2cccc(-n3nc4c(C(F)(F)F)cc(CN5CCC[C@H](C)C5)cn4c3=O)c2)(n2cccn2)C1` (some centres not stated) showed an IC50 [1] of over 10 µM, a microsomal CLint at 1 µM [2] of over 300 µL/min/mg and a logD at 2 h [3] of 5.3.
`Cc1cc(C(=O)Nc2cccc(C3(C)CNC(=O)O3)c2)nc(C2CC2)n1` (single isomer, unassigned; 14) gave an IC50 [1] of over 100 µM, a microsomal CLint at 1 µM [2] of 16 µL/min/mg and a logD at 2 h [3] of 2.7.
For `Cc1cc(C(=O)Nc2cccc(C3(C)CNC(=O)O3)c2)nc(C2CC2)n1` (single isomer, unassigned; 15), the IC50 [1] was over 100 µM, the CLH ([2]; microsomes, 0.5 h, 1 µM) was 10 µL/min/mg and the logD ([3]; octanol/water, pH 7.4, 2 h, 2 h) was 2.6.
Compound `C[C@H]1CCCN(Cc2cc(C(F)(F)F)c3nn(-c4cccc([C@]5(c6nncn6C)C[C@@H](C)C5)c4)c(=O)n3c2)C1` has an IC50 [1] of 0.011 µM, a microsomal CLint at 1 µM [2] of 160 µL/min/mg and a logD at 2 h [3] of 3.9.
`Cc1cc(C(=O)Nc2cccc([C@]3(C)CCNC(=O)C3)c2)nc(C2CC2)n1` gave an IC50 [1] of 28 µM, a microsomal CLint at 1 µM [2] of 34 µL/min/mg and a logD at 2 h [3] of 2.7.
`C[C@H]1CCCN(Cc2cc3c(c(C(F)(F)F)c2)CN(c2cccc([C@]4(c5nncn5C)C[C@@H](C)C4)c2)C3=O)C1` gave a microsomal CLint at 1 µM [2] of 130 µL/min/mg and a logD at 2 h [3] of 4.
In the case of `Cc1cc(C(=O)Nc2cccc(C3(C)CCNC(=O)N3C)c2)nc(C2CC2)n1` (racemic), the IC50 [1] is reported as over 100 µM, the microsomal CLint at 1 µM [2] is reported as 75 µL/min/mg and the logD at 2 h [3] is reported as 2.7.
With `C[C@H]1CCCN(Cc2cc(C(F)(F)F)c3nn(-c4cccc([C@]5(C(=O)N(C)C)C[C@@H](C)C5)c4)c(=O)n3c2)C1` the IC50 [1] was 2.1 µM, the microsomal CLint at 1 µM [2] was over 300 µL/min/mg and the logD at 2 h [3] was 4.9.
For `Cc1cc(C(=O)Nc2cccc([C@]3(C4CC4)CCNC(=O)O3)c2)nc(C2CC2)n1`, the IC50 [1] was 0.17 µM, the microsomal CLint at 1 µM [2] was 25 µL/min/mg and the logD at 2 h [3] was 3.

From ChEMBL document CHEMBL5576144, “Accelerated Discovery of Carbamate Cbl-b Inhibitors Using Generative AI Models and Structure-Based Drug Design” (J Med Chem, 2024)
